According to patent publication US10722514B2 (FLX Bio, Inc., priority 2017, dated 2020):
Where two headings read alike, the source gives them in different places.

Biological target: T1, recombinant full-length USP7 (Homo sapiens, UniProt Q93009)
T1 construct: A 25 μl reaction volume containing recombinant full-length USP7 (62 pM)
Test: USP7-mediated ubiquitin-rhodamine cleavage assay
Type: biochemical
Conditions: recombinant full-length USP7 62 pM, ubiquitin-rhodamine 100 nM, 1 hour reaction at room temperature
Outline: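 Enzyme 62 pM; HEPES pH 7.3/150 mM NaCl/1 mM TCEP/125 μg/ml BSA; 1% DMSO; 30 min cpd preinc RT; Ub-rhodamine 100 nM, 1 h RT, dark; acetic acid stop; fluorescence; IC50 4-param fit.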

[1] = 30-minute incubation with compound, read-out: Potency: USP7 IC50
[2] = 30-minute pre-incubation, read-out: Potency (USP7 IC50)

T1 sequence (Q93009 whole entry): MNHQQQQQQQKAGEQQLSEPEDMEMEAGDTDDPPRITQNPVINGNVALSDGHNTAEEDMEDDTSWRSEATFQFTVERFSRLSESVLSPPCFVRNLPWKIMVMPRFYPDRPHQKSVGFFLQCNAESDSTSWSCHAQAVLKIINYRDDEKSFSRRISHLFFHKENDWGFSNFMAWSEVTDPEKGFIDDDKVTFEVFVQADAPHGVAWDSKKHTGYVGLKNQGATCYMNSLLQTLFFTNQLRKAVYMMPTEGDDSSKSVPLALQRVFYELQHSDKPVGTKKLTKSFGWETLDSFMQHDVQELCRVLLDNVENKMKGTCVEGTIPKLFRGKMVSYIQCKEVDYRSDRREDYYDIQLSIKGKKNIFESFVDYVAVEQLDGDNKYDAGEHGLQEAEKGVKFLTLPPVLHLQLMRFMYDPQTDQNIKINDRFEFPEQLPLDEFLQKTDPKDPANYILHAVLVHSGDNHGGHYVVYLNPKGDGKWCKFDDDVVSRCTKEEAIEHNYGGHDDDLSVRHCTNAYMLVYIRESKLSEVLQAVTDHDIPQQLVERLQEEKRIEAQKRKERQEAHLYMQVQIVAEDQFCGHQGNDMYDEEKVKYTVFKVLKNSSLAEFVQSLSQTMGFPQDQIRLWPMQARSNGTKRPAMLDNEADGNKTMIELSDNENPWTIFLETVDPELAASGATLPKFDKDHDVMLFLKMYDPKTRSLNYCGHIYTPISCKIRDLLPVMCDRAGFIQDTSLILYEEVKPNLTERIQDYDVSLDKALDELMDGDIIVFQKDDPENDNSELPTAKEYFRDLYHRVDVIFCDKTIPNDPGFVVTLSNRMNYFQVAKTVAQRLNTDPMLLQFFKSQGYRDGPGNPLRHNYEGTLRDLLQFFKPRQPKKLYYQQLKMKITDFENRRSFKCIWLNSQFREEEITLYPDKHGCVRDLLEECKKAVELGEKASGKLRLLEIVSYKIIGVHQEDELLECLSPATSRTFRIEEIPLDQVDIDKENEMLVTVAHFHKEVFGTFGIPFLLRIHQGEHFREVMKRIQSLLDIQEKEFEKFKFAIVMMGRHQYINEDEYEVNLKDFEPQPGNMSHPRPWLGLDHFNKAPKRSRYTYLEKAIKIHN

Compound	IC50 [1] [µM]	IC50 [2] [µM]	also measured
Cc1cc(Cl)cc(-c2ncnc3cc(CN4C(=O)C5C(C4=O)C5(C)C)sc23)c1OC1CCNC1(C)C (centres unmarked) [Example 370, 3-[[4-[5-chloro-2-(2,2-dimethylpyrrolidin-3-yl)oxy-3-methyl-phenyl]thieno[3,2-d]pyrimidin-6-yl]methyl]-6,6-dimethyl-3-azabicyclo[3.1.0]hexane-2,4-dione]	< 1		
Cc1cc(Cl)cc(-c2ccnc3cc(Cn4c(=O)ccn(CC(F)(F)F)c4=O)sc23)c1OC1COC1 [Example 671, 3-[[7-[5-chloro-3-methyl-2-(oxetan-3-yloxy)phenyl]thieno[3,2-b]pyridin-2-yl]methyl]-1-(2,2,2-trifluoroethyl)pyrimidine-2,4-dione]			IC50 (30-minute incubation, read-out: Potency (USP7 IC50)): < 1 µM
CO[C@H]1CC(=O)N(Cc2cc3nccc(-c4cc(Cl)cc(C)c4O[C@H]4CCCNC4)c3s2)C1=O [Example 421, (3S)-1-[[7-[5-chloro-3-methyl-2-[[(3S)-3-piperidyl]oxy]phenyl]thieno[3,2-b]pyridin-2-yl]methyl]-3-methoxy-pyrrolidine-2,5-dione; 2,2,2-trifluoroacetic acid]		< 1	
Cc1cc(Cl)cc(-c2ccnc3cc(Cn4c(=O)ccn(CC(F)(F)F)c4=O)sc23)c1OCC1COC1 [Example 669, 3-[[7-[5-chloro-3-methyl-2-(oxetan-3-ylmethoxy)phenyl]thieno[3,2-b]pyridin-2-yl]methyl]-1-(2,2,2-trifluoroethyl)pyrimidine-2,4-dione]		< 1	
Cc1cc(Cl)cc(-c2ccnc3cc(Cn4c(=O)ccn(C)c4=O)sc23)c1O[C@@H]1CN(C(C)C)C[C@@H]1F [Example 469, 3-[[7-[5-chloro-2-[(3R,4S)-4-fluoro-1-isopropyl-pyrrolidin-3-yl]oxy-3-methyl-phenyl]thieno[3,2-b]pyridin-2-yl]methyl]-1-methyl-pyrimidine-2,4-dione]		< 1	
Cc1cc(Cl)cc(-c2ccnc3cc(Cn4c(=O)ccn(CC(F)(F)F)c4=O)sc23)c1O[C@H]1C[C@H](N)C1 [Example 277, 3-((7-(2-((1r,3r)-3-Aminocyclobutoxy)-5-chloro-3-methylphenyl)thieno[3,2-b]pyridin-2-yl)methyl)-1-(2,2,2-trifluoroethyl)pyrimidine-2,4(1H,3H)-dione]	< 1		
Cc1cc(Cl)cc(-c2ccnc3cc(CN4C(=O)C5C(C4=O)C5(C)C)sc23)c1O[C@H]1CC[C@H](C)NC1 (stereo partly drawn) [Example 399, 3-[[7-[5-chloro-3-methyl-2-[[(3S,6S)-6-methyl-3-piperidyl]oxy]phenyl]thieno[3,2-b]pyridin-2-yl]methyl]-6,6-dimethyl-3-azabicycllo[3.1.0]hexane-2,4-dione; 2,2,2-trifluoroacetic acid]	< 1		
Cc1cc(Cl)cc(-c2ccnc3cc(CN4C(=O)CCC4=O)sc23)c1O[C@@H]1CN[C@@H]2COC[C@@H]21 [Example 430, 1-[[7-[2-[[(3S,3aR,6aS)-2,3,3a,4,6,6a-hexahydro-1H-furo[3,4-b]pyrrol-3-yl]oxy]-5-chloro-3-methyl-phenyl]thieno[3,2-b]pyridin-2-yl]methyl]pyrrolidine-2,5-dione]		< 1	
Cc1cc(Cl)cc(-c2ccnc3cc(CN4C(=O)CCC4=O)sc23)c1O[C@H]1CCNC[C@H]1C [Example 229, 1-((7-(5-Chloro-3-methyl-2-(((3R,4S)-3-methylpiperidin-4-yl)oxy)phenyl)thieno[3,2-b]pyridin-2-yl)methyl)pyrrolidine-2,5-dione]	< 1		
Cc1cc(Cl)cc(-c2ccnc3cc(CN4C(=O)CCC4=O)sc23)c1OCC12CNCC1C2 (centres unmarked) [Example 52, 1-((7-(2-((3-Azabicyclo[3.1.0]hexan-1-yl)methoxy)-5-chloro-3-methylphenyl)thieno[3,2-b]pyridin-2-yl)methyl)pyrrolidine-2,5-dione]	< 1		
Cc1cc(Cl)cc(-c2ccnc3cc(CN4C(=O)C5CC5C4=O)sc23)c1O[C@@H]1CCNC[C@H]1F (stereo partly drawn) [Example 293, 3-[[7-[5-chloro-2-[[(3R,4R)-3-fluoro-4-piperidyl]oxy]-3-methyl-phenyl]thieno[3,2-b]pyridin-2-yl]methyl]-3-azabicyclo[3.1.0]hexane-2,4-dione; 2,2,2-trifluoroacetic acid]	< 1		
CCC(O)c1cc2nccc(-c3cc(Cl)cc(C)c3OC3CCN(C)CC3)c2s1 (centres unmarked) [Example 188, 1-(7-(5-Chloro-3-methyl-2-((1-methylpiperidin-4-yl)oxy)phenyl)thieno[3,2-b]pyridin-2-yl)propan-1-ol]	1 to 10		
Cc1cc(Cl)cc(-c2ccnc3cc(CN4C(=O)CCC4=O)sc23)c1O[C@H]1C[C@@H]2CN[C@H]1C2 [Example 221, 1-((7-(2-(((1S,4R,6S)-2-azabicyclo[2.2.1]heptan-6-yl)oxy)-5-chloro-3-methylphenyl)thieno[3,2-b]pyridin-2-yl)methyl)pyrrolidine-2,5-dione]	< 1		
Cc1cc(Cl)cc(-c2ccnc3cc(CN4C(=O)C5CCCCN5C4=O)sc23)c1OC1CCNCC1 (centres unmarked) [Example 228, 2-((7-(5-Chloro-3-methyl-2-(piperidin-4-yloxy)phenyl)thieno[3,2-b]pyridin-2-yl)methyl)tetrahydroimidazo[1,5-a]pyridine-1,3(2H,5H)-dione]	< 1		
Cc1cc(Cl)cc(-c2ccnc3cc(Cn4c(=O)ccn(CC(F)(F)F)c4=O)sc23)c1O[C@@H]1C[C@@H]2C[C@H]1CN2 [Example 637, 3-[[7-[2-[[(1S,4S,5R)-2-azabicyclo[2.2.1]heptan-5-yl]oxy]-5-chloro-3-methyl-phenyl]thieno[3,2-b]pyridin-2-yl]methyl]-1-(2,2,2-trifluoroethyl)pyrimidine-2,4-dione; 2,2,2-trifluoroacetic acid]		< 1	
Cc1cc(Cl)cc(-c2ccnc3ccsc23)c1O[C@H]1CCCN(C)C1 [Example 240, (S)-7-(5-Chloro-3-methyl-2-((1-methylpiperidin-3-yl)oxy)phenyl)thieno[3,2-b]pyridine]	> 30		
Cc1cc(Cl)cc(-c2ccnc3cc(Cn4c(=O)ccn(C)c4=O)sc23)c1O[C@@H]1C[C@@H]2COCCN2C1 [Example 502, 3-[[7-[2-[[(7R,8aR)-3,4,6,7,8,8a-hexahydro-1H-pyrrolo[2,1-c][1,4]oxazin-7-yl]oxy]-5-chloro-3-methyl-phenyl]thieno[3,2-b]pyridin-2-yl]methyl]-1-methyl-pyrimidine-2,4-dione]		< 1	
Cc1cc(Cl)cc(-c2ncnc3cc(CN4C(=O)CC(C)(C)C4=O)sc23)c1O[C@@H]1CNC[C@@H]1F [Example 380, 1-[[4-[5-chloro-2-[(3R,4S)-4-fluoropyrrolidin-3-yl]oxy-3-methyl-phenyl]thieno[3,2-d]pyrimidin-6-yl]methyl]-3,3-dimethyl-pyrrolidine-2,5-dione; 2,2,2-trifluoroacetic acid]	< 1		
Cc1cc(Cl)cc(-c2ccnc3cc(Cn4c(=O)c(F)cn(CC(F)(F)F)c4=O)sc23)c1O[C@@H]1CCNC[C@@H]1C [Example 551, 3-[[7-[5-chloro-3-methyl-2-[[(3S,4R)-3-methyl-4-piperidyl]oxy]phenyl]thieno[3,2-b]pyridin-2-yl]methyl]-5-fluoro-1-(2,2,2-trifluoroethyl)pyrimidine-2,4-dione]		< 1	
Cc1cc(Cl)cc(-c2ccnc3cc(CO)sc23)c1O[C@@H]1CNC[C@@H]1O [Example 78, (3S,4R)-4-(4-Chloro-2-(2-(hydroxymethyl)thieno[3,2-b]pyridin-7-yl)-6-methylphenoxy)pyrrolidin-3-ol]	1 to 10		
